According to patent US10568975B2, “Nanoparticles for magnetic resonance imaging tracking and methods of making and using thereof” (The Johns Hopkins University, priority 2013, dated 2020):

Assay: CEST contrast of surface-conjugated polymeric nanoparticles and DYD peptide
Assay type: physicochemical
Protocol: Polymeric particle preparation: The peptide contrast agent, propargylglycine-W-(DYD)6-NH2, was synthesized on a microwave-assisted peptide synthesizer Libertyl (CEM, USA). The CEST nanoparticles were then prepared by standard coupling chemistry. NH2PEG-N3 was coupled to carboxylates on the surface of polystyrene (PS) particles in the presence of EDC and NHS in 200 mM sodium borate buffer pH 7.8 at RT. Propargylglycine-W-(DYD)6-NH2 peptide was coupled with PS-PEG-N3 in the presence of catalytic amount of CuAcAc, TBTA, and excess ascorbic acid in sodium phosphate buffer pH 7, under nitrogen, using click chemistry. Biodegradable CEST nanoparticles based on the polymer of poly(lactic-co-glycolic) acid-co-PEG (PLGA-PEG) were synthesized using a similar procedure and formulated using a oil-in-water emulsion method.
The nanoparticles are suitable for tumor delivery. As the interior of the nanoparticles has reduced water accessibility compared to liposomes, the CEST agent was conjugated to the surface of the particle as shown in FIGS. 5(a) through 5(c). Two versions were prepared, one with a short (0.6 kDa) and a second with a longer PEG spacer (5.6 kDa). […] The DYD peptide provides contrast centered around 2.5 ppm from water, which should allow discrimination with the BA liposomes through multi-color CEST imaging.

CEST contrast centre, offset from water: around 2.5 ppm
Substance: propargylglycine-W-(DYD)6-NH2 [DYD peptide]
